Source: patent US7135462B2, “Hepatitis C virus inhibitors” (priority 2003, dated 2006)
Like-named read-outs stand apart in the source and are kept apart here.

Tests used:
[1] = target: T1, HCV NS3/4A protease complex (BMS strain) (UniProt P27958, C1454S/C1711G, species not given); experiment: Recombinant HCV NS3/4A protease complex FRET peptide assay; assay type: biochemical, Hepatitis C virus (HCV), genotype 1a; conditions: NS3/4A BMS strain, activity range class
T1 construct: for H77 and J4L6S; fused on or other part: Three-lysine solubilising tail at the C-terminus of NS4A
Excerpt: Recombinant HCV NS3/4A Protease Complex FRET Peptide Assay
Serum from an HCV-infected patient was obtained from Dr. T. Wright, San Francisco Hospital. An engineered full-length cDNA (compliment deoxyribonucleic acid) template of the HCV genome (BMS strain) was constructed from DNA fragments obtained by reverse transcription-PCR (RT-PCR) of serum RNA (ribonucleic acid) and using primers selected on the basis of homology between other genotype 1a strains.
The H77 and J4L6S strains were used for production of recombinant NS3/4A protease complexes. […] Briefly, a three-lysine solubilizing tail was added at the 3′-end of the NS4A coding region. […] Briefly, the NS3/4A protease complex expression was induced with 0.5 millimolar (mM) Isopropyl β-D-1-thiogalactopyranoside (IPTG) for 22 hours (h) at 20° C. […] The cells were resuspended in lysis buffer (10 mL/g) consisting of 25 mM N-(2-Hydroxyethyl)piperazine-N′-(2-Ethane Sulfonic acid) (HEPES), pH 7.5, 20% glycerol, 500 mM Sodium Chloride (NaCl), 0.5% Triton X-100, 1 microgram/milliliter (“μg/mL”) lysozyme, 5 mM Magnesium Chloride (MgCl2), 1 μg/ml DnaseI, 5 mM β-Mercaptoethanol (βME), Protease inhibitor—Ethylenediamine Tetraacetic acid (EDTA) free (Roche), homogenized and incubated for 20 minutes (min) at 4° C. The homogenate was sonicated and clarified by ultra-centrifugation at 235000 g for 1 h at 4° C. Imidazole was added to the supernatant to a final concentration of 15 mM and the pH adjusted to 8.0. The crude protein extract was loaded on a Nickel—Nitrilotriacetic acid (Ni-NTA) column pre-equilibrated with buffer B (25 mM HEPES, pH 8.0, 20% glycerol, 500 mM NaCl, 0.5% Triton X-100, 15 mM imidazole, 5 mM βME). The sample was loaded at a flow rate of 1 mL/min. The column was washed with 15 column volumes of buffer C (same as buffer B except with 0.2% Triton X-100). The protein was eluted with 5 column volumes of buffer D (same as buffer C except with 200 mM Imidazole).
NS3/4A protease complex-containing fractions were pooled and loaded on a desalting column Superdex-S200 pre-equilibrated with buffer D (25 mM HEPES, pH 7.5, 20% glycerol, 300 mM NaCl, 0.2% Triton X-100, 10 mM βME). Sample was loaded at a flow rate of 1 mL/min. NS3/4A protease complex-containing fractions were pooled and concentrated to approximately 0.5 mg/ml.
The enzyme was stored at −80° C., thawed on ice and diluted prior to use in assay buffer. […] The sequence of this peptide is loosely based on the NS4A/NS4B natural cleavage site for the HCV NS3 protease except there is an ester linkage rather than an amide bond at the cleavage site. The peptide substrate was incubated with one of the three recombinant NS3/4A protease complexes, in the absence or presence of a compound of the present invention, and the formation of fluorescent reaction product was followed in real time using a Cytofluor Series 4000.
The reagents were as follow: HEPES and Glycerol (Ultrapure) were obtained from GIBCO-BRL. Dimethyl Sulfoxide (DMSO) was obtained from Sigma. β-Mercaptoethanol was obtained from Bio Rad.
Assay buffer: 50 mM HEPES, pH 7.5; 0.15 M NaCl; 0.1% Triton; 15% Glycerol; 10 mM βME. Substrate: 2 μM final concentration (from a 2 mM stock solution in DMSO stored at −20° C.). HCV NS3/4A protease type 1a (1b), 2–3 nM final concentration (from a 5 μM stock solution in 25 mM HEPES, pH 7.5, 20% glycerol, 300 mM NaCl, 0.2% Triton-X100, 10 mM βME).
The assay was performed in a 96-well polystyrene black plate from Falcon.

[2] = tested on: HCV replicon in Huh7 cells; experiment: microbe, parasite or virus in culture; assay type: cell-based, strain 1b; conditions: Hepatitis C virus, Huh-7, 96 h; Huh7 cells expressing HCV replicon, 4 days; activity range class
Excerpt: Generation of HCV Replicon
This system enabled us to evaluate the effects of our HCV Protease compounds on HCV RNA replication. Briefly, using the HCV strain 1b sequence described in the Lohmann paper (Assession number: AJ238799), an HCV cDNA was generated encoding the 5′ internal ribosome entry site (IRES), the neomycin resistance gene, the EMCV (encephalomyocarditis viurs)-IRES and the HCV nonstructural proteins, NS3-NS5B, and 3′ non-translated region (NTR). In vitro transcripts of the cDNA were transfected into the human hepatoma cell line, Huh7. […] Resulting cell lines were characterized for positive and negative strand RNA production and protein production over time.
Huh7 cells, constitutively expressing the HCV replicon, were grown in Dulbecco's Modified Eagle Media (DMEM) containing 10% Fetal calf serum (FCS) and 1 mg/ml G418 (Gibco-BRL). Cells were seeded the night before (1.5×10^4 cells/well) in 96-well tissue-culture sterile plates. Compound and no compound controls were prepared in DMEM containing 4% FCS, 1:100 Penicillin/Streptomysin, 1:100 L-glutamine and 5% DMSO in the dilution plate (0.5% DMSO final concentration in the assay). Compound/DMSO mixes were added to the cells and incubated for 4 days at 37° C. After 4 days, plates were rinsed thoroughly with Phosphate-Buffered Saline (PBS) (3 times 150 μl). The cells were lysed with 25 μl of a lysis assay reagent containing the FRET peptide (RET S1, as described for the in vitro enzyme assay). The lysis assay reagent was made from 5× cell Luciferase cell culture lysis reagent (Promega #E153A) diluted to 1× with distilled water, NaCl added to 150 mM final, the FRET peptide diluted to 10 μM final from a 2 mM stock in 100% DMSO. The plate was then placed into the Cytofluor 4000 instrument which had been set to 340 nm excitation/490 nm emission, automatic mode for 21 cycles and the plate read in a kinetic mode. EC50 determinations were carried out as described for the IC50 determinations. […]
The percentage inhibition was calculated using the formula below: […]
The values were graphed and analyzed using XLFit to obtain the EC50 value.

| Structure (SMILES) | IC50 ([1]; read-out: IC50) [nM] | EC50 [2] [nM] | IC50 [1] [nM] |
| --- | --- | --- | --- |
| C=C[C@@H]1C[C@]1(NC(=O)[C@@H]1C[C@@H](Oc2nccc3cc(OC)ccc23)CN1C(=O)[C@@H](NC(=O)OC(C)(C)C)C(C)(C)C)C(=O)NS(=O)(=O)C1(Cl)CC1 [Cmpd 304, {1-[2-[1-(1-Chloro-cyclopropanesulfonylaminocarbonyl)-2-vinyl-cyclopropylcarbamoyl]-4-(6-methoxy-isoquinolin-1-yloxy)-pyrrolidine-1-carbonyl]-2,2-dimethyl-propyl}-carbamic acid tert-butyl ester] | < 100 | < 100 | – |
| C=C[C@@H]1C[C@]1(NC(=O)[C@@H]1C[C@@H](Oc2nccc3cc(OC)ccc23)CN1C(=O)[C@@H](NC(=O)OC(C)(C)C)C(C)(C)C)C(=O)NS(=O)(=O)C1(Cc2ccccc2)CC1 [Cmpd 303, {1-[2-[1-(1-Benzyl-cyclopropanesulfonylaminocarbonyl)-2-vinyl-cyclopropylcarbamoyl]-4-(6-methoxy-isoquinolin-1-yloxy)-pyrrolidine-1-carbonyl]-2,2-dimethyl-propyl}-carbamic acid tert-butyl ester] | 100 to 1000 | 100 to 1000 | – |
| C=C[C@@H]1C[C@]1(NC(=O)[C@@H]1C[C@@H](Oc2nc(-c3ccccc3)nc3ccccc23)CN1C(=O)[C@@H](N)C(C)(C)C)C(=O)NS(=O)(=O)C1(Cc2ccccc2)CC1 [Cmpd 603] | 1000 to 10000 | – | – |
| CCCC1(S(=O)(=O)NC(=O)[C@@]2(NC(=O)[C@@H]3C[C@@H](Oc4cc(-c5ccccc5)nc5c(C)noc45)CN3C(=O)[C@@H](NC(=O)OC(C)(C)C)C(C)(C)C)C[C@H]2CC)CC1 [Cmpd 502] | – | 100 to 1000 | 100 to 1000 |
| C=C[C@@H]1C[C@]1(NC(=O)[C@@H]1C[C@@H](Oc2nccc3ccccc23)CN1C(=O)[C@@H](NC(=O)OCC(C)(C)C)C(C)(C)C)C(=O)NS(=O)(=O)C1(Cc2ccccc2)CC1 [Cmpd 205] | 100 to 1000 | 100 to 1000 | – |
| C=C[C@@H]1C[C@]1(NC(=O)[C@@H]1C[C@@H](Oc2nccc3ccccc23)CN1C(=O)[C@@H](NC(=O)OCCOC)C(C)(C)C)C(=O)NS(=O)(=O)C1(Cc2ccccc2)CC1 [Cmpd 204] | 1000 to 10000 | – | – |
| C=C[C@@H]1C[C@]1(NC(=O)[C@@H]1C[C@@H](Oc2nccc3cc(OC)ccc23)CN1C(=O)[C@@H](NC(=O)OC(C)(C)C)C(C)(C)C)C(=O)NS(=O)(=O)C1(C)CC1 [Cmpd 301, (1-{4-(6-Methoxy-isoquinolin-1-yloxy)-2-[1-(1-methyl-cyclopropanesulfonylaminocarbonyl)-2-vinyl-cyclopropylcarbamoyl]-pyrrolidine-1-carbonyl}-2,2-dimethyl-propyl)-carbamic acid tert-butyl ester] | < 100 | < 100 | – |
| C=C[C@@H]1C[C@]1(NC(=O)[C@@H]1C[C@@H](Oc2nccc3c(C(F)(F)F)cccc23)CN1C(=O)[C@@H](NC(=O)OC(C)(C)C)C(C)(C)C)C(=O)NS(=O)(=O)C1(CC)CC1 [Cpd 104] | < 100 | 100 to 1000 | – |
| C=C[C@@H]1C[C@]1(NC(=O)[C@@H]1C[C@@H](Oc2nccc3cc(OC)ccc23)CN1C(=O)[C@@H](NC(=O)NC(C)(C)C)C(C)(C)C)C(=O)NS(=O)(=O)C1(C)CC1 [Cmpd 217] | – | < 100 | < 100 |
| C=C[C@@H]1C[C@]1(NC(=O)[C@@H]1C[C@@H](Oc2nc(-c3ccccc3)nc3ccccc23)CN1C(=O)[C@@H](N)C(C)(C)C)C(=O)NS(=O)(=O)C1(CC2CC2)CC1 [Cmpd 602] | 100 to 1000 | 1000 to 10000 | – |
| C=C[C@@H]1C[C@]1(NC(=O)[C@@H]1C[C@@H](Oc2nccc3ccccc23)CN1C(=O)[C@@H](NC(=O)CC(C)(C)C)C(C)(C)C)C(=O)NS(=O)(=O)C1(Cc2ccccc2)CC1 [Cmpd 210] | 1000 to 10000 | – | – |
| C=C[C@@H]1C[C@]1(NC(=O)[C@@H]1C[C@@H](Oc2nccc3ccccc23)CN1C(=O)[C@@H](NC(=O)Oc1ccc(F)cc1)C(C)(C)C)C(=O)NS(=O)(=O)C1(Cc2ccccc2)CC1 [Cmpd 202] | 1000 to 10000 | – | – |
| C=C[C@@H]1C[C@]1(NC(=O)[C@@H]1C[C@@H](Oc2nccc3ccccc23)CN1C(=O)[C@@H](NC(=O)[C@@H]1COc2ccccc2O1)C(C)(C)C)C(=O)NS(=O)(=O)C1(Cc2ccccc2)CC1 [Cmpd 213] | 10000 to 100000 | – | – |
| C=C[C@@H]1C[C@]1(NC(=O)[C@@H]1C[C@@H](Oc2nccc3ccccc23)CN1C(=O)[C@@H](NC(=O)Oc1ccccc1OC)C(C)(C)C)C(=O)NS(=O)(=O)C1(Cc2ccccc2)CC1 [Cmpd 207] | 1000 to 10000 | – | – |
| C=C[C@@H]1C[C@]1(NC(=O)[C@@H]1C[C@@H](Oc2nccc3ccccc23)CN1C(=O)[C@@H](NC(=O)Oc1ccccc1)C(C)(C)C)C(=O)NS(=O)(=O)C1(Cc2ccccc2)CC1 [Cmpd 201] | 1000 to 10000 | – | – |
| C=C[C@@H]1C[C@]1(NC(=O)[C@@H]1C[C@@H](Oc2nccc3ccccc23)CN1C(=O)[C@@H](NC(=O)OCCF)C(C)(C)C)C(=O)NS(=O)(=O)C1(Cc2ccccc2)CC1 [Cmpd 206] | 100 to 1000 | – | – |
| C=C[C@@H]1C[C@]1(NC(=O)[C@@H]1C[C@@H](Oc2nccc3ccccc23)CN1C(=O)[C@@H](NC(=O)Oc1cccc(C(F)(F)F)c1)C(C)(C)C)C(=O)NS(=O)(=O)C1(Cc2ccccc2)CC1 [Cmpd 208] | 1000 to 10000 | – | – |
| C=C[C@@H]1C[C@]1(NC(=O)[C@@H]1C[C@@H](Oc2nccc3ccccc23)CN1C(=O)[C@@H](NC(=O)Oc1ccc(C)cc1)C(C)(C)C)C(=O)NS(=O)(=O)C1(Cc2ccccc2)CC1 [Cmpd 200] | 1000 to 10000 | – | – |
| C=C[C@@H]1C[C@]1(NC(=O)[C@@H]1C[C@@H](Oc2nccc3ccccc23)CN1C(=O)[C@@H](NC(=O)CCOC)C(C)(C)C)C(=O)NS(=O)(=O)C1(Cc2ccccc2)CC1 [Cmpd 212] | 1000 to 10000 | – | – |
| C=C[C@@H]1C[C@]1(NC(=O)[C@@H]1C[C@@H](Oc2nccc3ccccc23)CN1C(=O)[C@@H](NC(=O)Oc1ccc(OC)cc1)C(C)(C)C)C(=O)NS(=O)(=O)C1(Cc2ccccc2)CC1 [Cmpd 203] | 1000 to 10000 | – | – |
| C=C[C@@H]1C[C@]1(NC(=O)[C@@H]1C[C@@H](Oc2nccc3ccccc23)CN1C(=O)[C@@H](NC(=O)COC)C(C)(C)C)C(=O)NS(=O)(=O)C1(Cc2ccccc2)CC1 [Cmpd 211] | 1000 to 10000 | – | – |
